# From US20120282237A1, “USE OF PROTEIN ARGININE METHYLTRANSFERASES IN REGULATING HEMATOPOIETIC DIFFERENTIATION” (priority 2011, published 2012)
# Columns and labels:
# K562 cells [1] = experiment: Ara-C-induced erythroid differentiation of K562 cells, benzidine staining; assay type: cell-based, human
# Description: Various K562 cell clones were treated with Ara-C (A, 1 μM) and sodium butyrate (B, 2 mM) for 96 hr, and measured by qualifying hemoglobin-positive cells with benzidine stain. […] All experiments were performed at least three times and data are presented as means±S.E.; *** p<0.005 as compared with K562 parental cells.
# The methyltransferase inhibitor, adenosine dialdehyde (AdOx), was added 8 hours before Ara-C treatment. Inhibition of methylation suppressed Ara-C-induced erythroid differentiation (A). The enzymatically impaired mutant PRMT1G80R, when transiently expressed in K562 cells (B), lost the effect on both megakaryocyte (C) and erythroid (D) differentiations. […] All experiments were performed at least three times and data are presented as means±S.E.; *** p<0.005 as compared with K562 parental cells.
# In order to test whether activity of PRMT1 participates in regulation of differentiation, adenosine dialdehyde (AdOx), an inhibitor of S-adenosylhomocysteine hydrolase, which indirectly suppresses methylation due to accumulation of products, was used to treat K562 cells. […] A single amino acid mutation (G80R) in the conserved SAM binding domain of PRMT1 with impaired methyltransferase activity (Kwak et al., Mol. Cell 2003, 11, 1055-1066), HA-PRMT1G80R, was transiently expressed in K562 cells (FIG. 5B).
# K562 cells [2] = experiment: PMA-induced megakaryocyte differentiation of K562 cells (modified Wright-Giemsa staining, adherent cells); assay type: cell-based, human; settings: PMA 40 nM
# Description: For megakaryocyte differentiation, K562 cells were treated with 40 nM of PMA, (Sigma-Aldrich). Adherent cells with pseudopodia were examined by phase contrast light microscopy. For quantification, cells in suspension or loosely attached were first removed from the culture dish carefully, and adherent cells were then removed by trypsinization, collected, and counted. Cytological changes, including a multilobed nucleus and vacuolated cytoplasm, were examined by modified Wright-Giemsa staining. Three to four hundred cells were examined in each assay.
# Megakaryopoiesis can be characterized by cytological changes and expression of lineage-specific markers such as CD41. […] In addition, we observed an increased number of adherent cells, about 30% at 96 hour (FIG. 2B, E3-6).
# [3] = system: human CD34+ hematopoietic cells; experiment: TPO-induced megakaryocyte differentiation of CD34+ cells, CD41 expression by flow cytometry; assay type: cell-based; settings: TPO alone (100 ng/ml), day 15
# Description: To analyze the megakaryocyte surface marker CD41, cells were first incubated in 2% bovine serum albumin for 30 min and then with fluorescein isothiocyanate (FITC)-conjugated anti-Plt-1 (CD41) antibodies (1:80, Beckman Coulter) in 1% bovine serum albumin for 30 min; cells were then analyzed by flow cytometry.
# To investigate the effect of PRMT1 in more physiologically relevant conditions, TAT-HA-PRMT1 was introduced into human CD34^+ hematopoietic cells. CD34^+ cells were derived from human umbilical cord blood with consent from the mother and were collected and processed according to governmental regulations (“Guidelines for Collection and Use of Human Specimens for Research.” Department of Health, Taiwan). Isolation and expansion of CD34^+ cells were performed as described previously (Yao, et al., Stem Cells Dev. 2006, 15, 70-78).
# Briefly, the CD34^+ cells were purified with CD34 microbeads by a Miltenyi VarioMACS device (Miltenyi Biotec) and cultivated in serum-free Iscove's modified Dulbecco's medium (IMDM) (HyClone) supplemented with serum substitutes (1.5 g/liter bovine serum albumin, 4.4 μg/ml insulin, 60 μg/ml transferrin, and 25.9 μM 2-mercaptoethanol) and a cytokine mixture (8.5 ng/ml TPO, 4.1 ng/ml interleukin-3, 15 ng/ml stem cell factor, 6.7 ng/ml flk2/flt3 ligand, 0.8 ng/ml interleukin-6, 3.2 ng/ml granulocyte colony-stimulating factor, and 1.3 ng/ml granulocyte-macrophage colony-stimulating factor) for 6 to 7 days. To induce megakaryocyte differentiation, the expanded CD34^+ cells were cultivated (5×10^4cells/ml) in media described above without cytokine mixture for 6 h. TPO (100 ng/ml) was added to induce differentiation. Expression of CD41 was analyzed by flow cytometry 15 days after TPO stimulation.
# Recombinant TAT-fused HA-PRMT1 and HA-GFP (as a control) proteins were expressed in Escherichia coli and purified using Ni^+-nitrilotriacetic acid-agarose (Qiagen). Endotoxins were removed using Detoxi-Gel™ endotoxin removing gel (Pierce) according to the manufacturer's instructions. For differentiation study, recombinant TAT-fused proteins were added to CD34^+ cells 6 h before TPO stimulation and again at the time of TPO addition.
# Both the recombinant TAT-conjugated HA-PRMT1 protein and the HA-GFP control protein were detected in cells by Western blot analysis (FIG. 6A). Erk was used as a loading control. Thrombopoietin (TPO) induces CD34^+ hematopoietic cells to undergo differentiation towards the megakaryocyte lineage as detected by the expression of the specific surface marker CD41. TPO-induced CD41 expression ranged from 45% to 76% in four different donors at day 15 after TPO treatment (Table 1).
molecule,measurement,setting,value
"Nc1ncnc2c1ncn2C(C=O)OC(C=O)CO (centres unmarked) [AdOx, adenosine dialdehyde]",Ara-C-induced erythrocytic differentiation,K562 cells [1]; AdOx added 8 hours before Ara-C treatment,dramatically suppressed
same,erythrocytic differentiation,"K562 cells [1]; AdOx alone, no Ara-C",did not influence differentiation
"CCCCCCCCCCCCCC(=O)O[C@@H]1[C@@H](C)[C@@]2(O)[C@@H](C=C(CO)C[C@]3(O)C(=O)C(C)=C[C@@H]23)[C@@H]2C(C)(C)[C@]12OC(C)=O [PMA, Phobol 12-myristate 13-acetate]",cells with characteristics of megakaryocytes,"K562 cells [2]; E3-6 and parental K562 cells, 96 hours",About 50%
same,adherent cells,"K562 cells [2]; E3-6 cells, 96 hour",about 30%
"TPO: Thrombopoietin, inducer of megakaryocyte differentiation of CD34+ cells (100 ng/ml)",CD41 expression,[3]; donor 1,62.3%
same,CD41 expression,[3]; donor 2,44.7%
same,CD41 expression,[3]; donor 3,68.2%
same,CD41 expression,[3]; donor 4,75.7%
